Measurements published in paper PMC6704710, “Preclinical evaluation of 3D185, a novel potent inhibitor of FGFR1/2/3 and CSF-1R, in FGFR-dependent and macrophage-dominant cancer models” (Journal of Experimental & Clinical Cancer Research : CR, 2019).

Experiments:
Format in all cases: biochemical
FGFR1 = biological target: T1, FGFR1 (Homo sapiens, UniProt P11362); experiment: Kinase inhibition assay (ELISA)
T1 construct: purchased Eurofins (Fremont, United States)
Protocol: (§1) Active FGFR1–4, VEGFR1, KDR, VEGFR3, PDGFRα and PDGFRβ proteins were purchased from Eurofins (Fremont, United States), and kinase activity was assessed using ELISA, as previously reported. […]. Increasing concentrations of ATP were diluted for the kinase reaction in the ATP competition assay. CSF-1R kinase activity was analyzed using the Z’-LYTE™ Kinase Assay Kit (Thermo Fisher, United States). The assay formats are described in the SelectScreen Kinase Profiling Service Zlyte protocol. IC50 values were calculated by dose-response curve fitting using Prism (Graph Pad).

PDGFRα = biological target: T2, PDGFRα (Homo sapiens, UniProt P16234); experiment: Kinase inhibition assay (ELISA)
T2 construct: purchased Eurofins (Fremont, United States)
Protocol: as §1

PDGFRβ = biological target: T3, PDGFRβ (Homo sapiens, UniProt P09619); experiment: Kinase inhibition assay (ELISA)
T3 construct: purchased Eurofins (Fremont, United States)
Protocol: as §1

VEGFR1 = biological target: T4, VEGFR1 (Homo sapiens, UniProt P17948); experiment: Kinase inhibition assay (ELISA)
T4 construct: purchased Eurofins (Fremont, United States)
Protocol: as §1

VEGFR3 = biological target: T5, VEGFR3 (Homo sapiens, UniProt P35916); experiment: Kinase inhibition assay (ELISA)
T5 construct: purchased Eurofins (Fremont, United States)
Protocol: as §1

BrSK2(h) = biological target: T6, BrSK2(h) (Homo sapiens, UniProt Q8IWQ3); experiment: Eurofins kinase panel; conditions: read-out: Inhibition rate (%)
T6 construct: purchased Eurofins (KinaseProfiler)
T6 sequence (Q8IWQ3 1-736): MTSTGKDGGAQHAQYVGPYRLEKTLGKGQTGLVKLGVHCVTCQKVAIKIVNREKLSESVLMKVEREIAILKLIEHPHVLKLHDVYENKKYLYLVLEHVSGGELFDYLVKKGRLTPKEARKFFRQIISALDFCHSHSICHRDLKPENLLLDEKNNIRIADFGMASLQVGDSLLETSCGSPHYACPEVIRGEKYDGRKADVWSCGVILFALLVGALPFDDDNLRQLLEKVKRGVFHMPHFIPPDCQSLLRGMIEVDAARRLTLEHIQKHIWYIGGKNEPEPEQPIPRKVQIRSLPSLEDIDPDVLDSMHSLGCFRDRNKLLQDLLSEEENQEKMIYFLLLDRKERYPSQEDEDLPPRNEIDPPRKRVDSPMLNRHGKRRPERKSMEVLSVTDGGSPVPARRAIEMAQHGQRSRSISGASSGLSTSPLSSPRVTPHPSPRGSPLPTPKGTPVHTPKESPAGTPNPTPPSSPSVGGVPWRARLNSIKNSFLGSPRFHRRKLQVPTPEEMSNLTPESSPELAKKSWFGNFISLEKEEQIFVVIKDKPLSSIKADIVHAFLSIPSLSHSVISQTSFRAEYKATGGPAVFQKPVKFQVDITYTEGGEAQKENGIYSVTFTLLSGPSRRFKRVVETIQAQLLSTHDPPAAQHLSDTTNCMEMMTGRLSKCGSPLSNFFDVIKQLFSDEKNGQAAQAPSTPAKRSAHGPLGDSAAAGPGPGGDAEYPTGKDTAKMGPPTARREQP

CDK7/cyclinH/MAT1(h) = biological target: T7, CDK7/cyclinH/MAT1(h) (Homo sapiens, UniProt P50613); experiment: Eurofins kinase panel; conditions: read-out: Inhibition rate (%)
T7 construct: purchased Eurofins (KinaseProfiler)
T7 sequence (P50613 whole entry): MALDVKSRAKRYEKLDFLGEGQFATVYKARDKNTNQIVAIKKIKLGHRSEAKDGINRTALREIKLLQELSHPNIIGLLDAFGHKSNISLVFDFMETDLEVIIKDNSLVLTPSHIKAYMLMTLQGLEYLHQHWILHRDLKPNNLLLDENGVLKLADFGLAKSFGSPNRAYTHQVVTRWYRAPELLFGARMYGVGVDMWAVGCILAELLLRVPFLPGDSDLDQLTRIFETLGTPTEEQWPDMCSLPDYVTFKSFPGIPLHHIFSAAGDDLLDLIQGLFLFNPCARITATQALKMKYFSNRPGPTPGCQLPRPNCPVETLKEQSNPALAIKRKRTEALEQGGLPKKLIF
T7 sequence (P51946 whole entry partner): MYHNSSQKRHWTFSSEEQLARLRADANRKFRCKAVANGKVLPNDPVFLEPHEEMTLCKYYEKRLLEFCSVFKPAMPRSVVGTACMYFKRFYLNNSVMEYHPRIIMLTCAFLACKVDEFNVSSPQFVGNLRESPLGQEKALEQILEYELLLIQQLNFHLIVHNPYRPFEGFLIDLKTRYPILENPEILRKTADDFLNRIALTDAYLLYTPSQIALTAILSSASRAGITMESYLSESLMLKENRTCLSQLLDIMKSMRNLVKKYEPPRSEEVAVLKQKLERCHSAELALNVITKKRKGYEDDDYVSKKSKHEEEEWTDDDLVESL
T7 sequence (P51948 whole entry partner): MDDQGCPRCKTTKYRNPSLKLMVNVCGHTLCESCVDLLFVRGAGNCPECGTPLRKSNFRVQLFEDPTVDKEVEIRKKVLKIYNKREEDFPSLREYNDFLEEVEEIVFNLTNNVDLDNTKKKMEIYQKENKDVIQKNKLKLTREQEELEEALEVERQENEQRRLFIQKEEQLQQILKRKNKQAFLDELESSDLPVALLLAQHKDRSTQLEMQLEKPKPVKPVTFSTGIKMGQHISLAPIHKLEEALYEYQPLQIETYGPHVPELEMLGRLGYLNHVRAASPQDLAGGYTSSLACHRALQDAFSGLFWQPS

CDKL1(h) = biological target: T8, CDKL1(h) (Homo sapiens, UniProt Q00532); experiment: Eurofins kinase panel; conditions: read-out: Inhibition rate (%)
T8 construct: purchased Eurofins (KinaseProfiler)
T8 sequence (Q00532 whole entry): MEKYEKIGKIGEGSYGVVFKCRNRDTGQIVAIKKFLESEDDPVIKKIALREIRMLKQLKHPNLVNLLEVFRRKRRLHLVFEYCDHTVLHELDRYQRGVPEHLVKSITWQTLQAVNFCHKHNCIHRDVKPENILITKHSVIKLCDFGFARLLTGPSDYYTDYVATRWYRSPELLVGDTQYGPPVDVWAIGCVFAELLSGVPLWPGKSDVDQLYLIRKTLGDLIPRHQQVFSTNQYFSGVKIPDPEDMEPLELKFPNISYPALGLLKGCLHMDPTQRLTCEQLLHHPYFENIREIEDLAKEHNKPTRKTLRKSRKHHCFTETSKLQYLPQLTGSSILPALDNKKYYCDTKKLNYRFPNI

DRAK1(h) = biological target: T9, DRAK1(h) (Homo sapiens, UniProt Q9UEE5); experiment: Eurofins kinase panel; conditions: read-out: Inhibition rate (%)
T9 construct: purchased Eurofins (KinaseProfiler)
T9 sequence (Q9UEE5 1-414): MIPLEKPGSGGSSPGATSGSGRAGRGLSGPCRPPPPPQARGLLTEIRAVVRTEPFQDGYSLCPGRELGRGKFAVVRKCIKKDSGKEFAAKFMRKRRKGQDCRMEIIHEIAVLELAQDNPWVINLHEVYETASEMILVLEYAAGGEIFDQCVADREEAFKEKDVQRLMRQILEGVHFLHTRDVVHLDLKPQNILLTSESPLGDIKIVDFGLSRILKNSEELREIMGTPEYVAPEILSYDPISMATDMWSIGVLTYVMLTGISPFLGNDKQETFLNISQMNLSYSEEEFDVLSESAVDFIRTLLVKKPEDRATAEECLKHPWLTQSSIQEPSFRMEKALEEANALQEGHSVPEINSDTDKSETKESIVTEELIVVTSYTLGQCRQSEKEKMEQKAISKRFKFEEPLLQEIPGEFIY

IRR(h) = biological target: T10, IRR(h) (Homo sapiens, UniProt P14616); experiment: Eurofins kinase panel; conditions: read-out: Inhibition rate (%)
T10 construct: purchased Eurofins (KinaseProfiler)

JNK3(h) = biological target: T11, JNK3(h) (Homo sapiens, UniProt P53779); experiment: Eurofins kinase panel; conditions: read-out: Inhibition rate (%)
T11 construct: purchased Eurofins (KinaseProfiler)
T11 sequence (P53779 whole entry): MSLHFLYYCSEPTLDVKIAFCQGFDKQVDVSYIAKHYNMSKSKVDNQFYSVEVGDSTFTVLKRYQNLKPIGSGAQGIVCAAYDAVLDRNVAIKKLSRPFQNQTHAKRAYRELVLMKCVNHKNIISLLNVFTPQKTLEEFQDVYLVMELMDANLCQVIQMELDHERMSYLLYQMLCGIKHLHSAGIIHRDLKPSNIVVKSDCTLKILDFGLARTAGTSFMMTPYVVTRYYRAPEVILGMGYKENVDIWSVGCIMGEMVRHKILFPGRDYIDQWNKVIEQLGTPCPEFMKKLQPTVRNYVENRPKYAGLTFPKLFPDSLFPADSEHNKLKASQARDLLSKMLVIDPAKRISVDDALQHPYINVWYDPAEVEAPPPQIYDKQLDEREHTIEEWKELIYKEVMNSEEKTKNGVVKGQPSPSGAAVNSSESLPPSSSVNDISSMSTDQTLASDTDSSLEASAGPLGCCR

PAK1(h) = biological target: T12, PAK1(h) (Homo sapiens, UniProt Q13153); experiment: Eurofins kinase panel; conditions: read-out: Inhibition rate (%)
T12 construct: purchased Eurofins (KinaseProfiler)
T12 sequence (Q13153 whole entry): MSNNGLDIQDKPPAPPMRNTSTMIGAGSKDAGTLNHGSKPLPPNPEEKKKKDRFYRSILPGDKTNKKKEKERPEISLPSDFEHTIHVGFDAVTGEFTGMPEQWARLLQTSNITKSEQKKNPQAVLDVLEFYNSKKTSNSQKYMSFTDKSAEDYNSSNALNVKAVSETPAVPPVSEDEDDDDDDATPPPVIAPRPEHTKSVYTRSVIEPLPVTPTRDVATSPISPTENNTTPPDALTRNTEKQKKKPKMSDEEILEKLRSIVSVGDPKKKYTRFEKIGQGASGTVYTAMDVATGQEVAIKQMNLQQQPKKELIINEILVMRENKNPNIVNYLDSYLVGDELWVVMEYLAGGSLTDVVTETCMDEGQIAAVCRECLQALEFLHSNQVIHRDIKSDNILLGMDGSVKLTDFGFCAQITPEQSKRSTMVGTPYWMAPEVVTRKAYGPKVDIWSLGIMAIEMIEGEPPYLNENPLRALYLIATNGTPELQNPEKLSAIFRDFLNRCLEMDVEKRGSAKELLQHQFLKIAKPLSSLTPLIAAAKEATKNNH

PDHK4(h) = biological target: T13, PDHK4(h) (Homo sapiens, UniProt Q16654); experiment: Eurofins kinase panel; conditions: read-out: Inhibition rate (%)
T13 construct: purchased Eurofins (KinaseProfiler)
T13 sequence (Q16654 whole entry): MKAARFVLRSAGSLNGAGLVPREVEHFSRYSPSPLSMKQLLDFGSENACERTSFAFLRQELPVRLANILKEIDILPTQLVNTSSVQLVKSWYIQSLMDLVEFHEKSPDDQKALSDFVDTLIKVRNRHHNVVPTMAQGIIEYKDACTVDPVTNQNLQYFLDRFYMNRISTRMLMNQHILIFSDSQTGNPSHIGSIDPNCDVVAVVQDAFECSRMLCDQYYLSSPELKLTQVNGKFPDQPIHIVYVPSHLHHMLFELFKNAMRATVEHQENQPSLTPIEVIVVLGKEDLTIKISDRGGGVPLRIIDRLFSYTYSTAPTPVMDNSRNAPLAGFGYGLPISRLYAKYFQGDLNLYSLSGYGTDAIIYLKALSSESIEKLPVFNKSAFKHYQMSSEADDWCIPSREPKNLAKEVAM

Pim-1(h) = biological target: T14, Pim-1(h) (Homo sapiens, UniProt P11309); experiment: Eurofins kinase panel; conditions: read-out: Inhibition rate (%)
T14 construct: purchased Eurofins (KinaseProfiler)
T14 sequence (P11309 whole entry): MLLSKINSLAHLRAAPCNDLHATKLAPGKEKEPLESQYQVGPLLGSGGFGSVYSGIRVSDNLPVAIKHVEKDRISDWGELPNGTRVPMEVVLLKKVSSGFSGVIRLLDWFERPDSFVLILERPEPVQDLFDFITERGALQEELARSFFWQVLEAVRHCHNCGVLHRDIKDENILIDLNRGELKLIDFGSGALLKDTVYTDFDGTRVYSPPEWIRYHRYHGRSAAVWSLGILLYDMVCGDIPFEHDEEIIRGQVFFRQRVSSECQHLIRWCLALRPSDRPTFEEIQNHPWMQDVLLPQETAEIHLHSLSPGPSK

RIPK2(h) = biological target: T15, RIPK2(h) (Homo sapiens, UniProt O43353); experiment: Eurofins kinase panel; conditions: read-out: Inhibition rate (%)
T15 construct: purchased Eurofins (KinaseProfiler)
T15 sequence (O43353 whole entry): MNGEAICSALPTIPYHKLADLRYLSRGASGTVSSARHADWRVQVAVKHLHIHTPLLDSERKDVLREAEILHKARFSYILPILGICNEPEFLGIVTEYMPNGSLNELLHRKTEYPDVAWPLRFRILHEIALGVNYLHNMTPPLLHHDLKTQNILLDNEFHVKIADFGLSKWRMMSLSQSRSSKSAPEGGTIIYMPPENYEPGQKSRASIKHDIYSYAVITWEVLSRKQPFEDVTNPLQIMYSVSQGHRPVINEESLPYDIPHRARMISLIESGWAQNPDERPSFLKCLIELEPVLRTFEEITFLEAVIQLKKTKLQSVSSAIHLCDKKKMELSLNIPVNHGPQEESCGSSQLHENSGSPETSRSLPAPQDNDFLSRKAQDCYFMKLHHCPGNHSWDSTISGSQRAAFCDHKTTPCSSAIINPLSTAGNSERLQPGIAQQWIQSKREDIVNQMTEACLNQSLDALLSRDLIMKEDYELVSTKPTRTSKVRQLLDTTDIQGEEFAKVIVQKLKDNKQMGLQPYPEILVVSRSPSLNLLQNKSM

T1 sequence (P11362 22-822): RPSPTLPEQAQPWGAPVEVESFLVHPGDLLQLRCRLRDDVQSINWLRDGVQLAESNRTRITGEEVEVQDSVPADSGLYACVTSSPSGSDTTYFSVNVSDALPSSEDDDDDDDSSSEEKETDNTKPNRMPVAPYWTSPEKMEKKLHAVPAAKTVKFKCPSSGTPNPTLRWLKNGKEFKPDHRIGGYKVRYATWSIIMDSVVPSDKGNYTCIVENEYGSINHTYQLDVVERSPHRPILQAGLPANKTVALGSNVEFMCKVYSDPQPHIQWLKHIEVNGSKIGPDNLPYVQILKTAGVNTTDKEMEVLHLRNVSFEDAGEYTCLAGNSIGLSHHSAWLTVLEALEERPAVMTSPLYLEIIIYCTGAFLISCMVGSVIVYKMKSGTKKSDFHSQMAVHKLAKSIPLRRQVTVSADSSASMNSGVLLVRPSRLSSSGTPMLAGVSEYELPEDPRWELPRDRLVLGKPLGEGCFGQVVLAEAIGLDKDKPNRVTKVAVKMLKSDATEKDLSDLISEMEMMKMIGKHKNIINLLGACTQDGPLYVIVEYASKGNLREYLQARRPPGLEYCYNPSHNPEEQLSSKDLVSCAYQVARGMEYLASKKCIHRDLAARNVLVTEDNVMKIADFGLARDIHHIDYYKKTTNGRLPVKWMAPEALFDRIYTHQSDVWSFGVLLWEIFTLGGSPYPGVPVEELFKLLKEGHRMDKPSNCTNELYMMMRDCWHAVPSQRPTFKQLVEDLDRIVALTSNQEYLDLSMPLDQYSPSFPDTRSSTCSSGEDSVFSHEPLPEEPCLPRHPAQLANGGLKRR

In the case of `COc1cc(OC)c(Cl)c(-c2ccc3c(NC(=O)c4ccc(N5CCNC(C)(C)C5)cc4)n[nH]c3n2)c1Cl` [3D185], the mode of inhibition (FGFR1; ATP competition assay) is reported as “ATP-competitive inhibitor”, the “selectivity for FGFR over PDGFRα, PDGFRβ, VEGFR1 and VEGFR3” value (FGFR1; kinase assays) is reported as > 2000 fold and the IC50 (FGFR1; mean ± SD) is reported as 0.5 nM. The IC50 (PDGFRα) was > 1000 nM, the IC50 (PDGFRβ) was > 1000 nM and the IC50 (VEGFR1) was > 1000 nM. The IC50 (VEGFR3) was > 1000 nM, the inhibition at 0.01 µM (BrSK2(h); 10 nM) was 8% and the inhibition at 0.1 µM (BrSK2(h); 100 nM) was 5%. It also gave an inhibition at 1 µM (BrSK2(h); 1000 nM) of 11%, an inhibition at 0.01 µM (CDK7/cyclinH/MAT1(h); 10 nM) of 12% and an inhibition at 0.1 µM (CDK7/cyclinH/MAT1(h); 100 nM) of 11%. The inhibition at 1 µM (CDK7/cyclinH/MAT1(h); 1000 nM) was 11%, the inhibition at 0.01 µM (CDKL1(h); 10 nM) was 3% and the inhibition at 0.1 µM (CDKL1(h); 100 nM) was -5%. For the same molecule, the inhibition at 1 µM (CDKL1(h); 1000 nM) was 0%, the inhibition at 0.01 µM (DRAK1(h); 10 nM) was -4% and the inhibition at 0.1 µM (DRAK1(h); 100 nM) was 7%. It also gave an inhibition at 1 µM (DRAK1(h); 1000 nM) of 14%, an inhibition at 0.01 µM (IRR(h); 10 nM) of -5% and an inhibition at 0.1 µM (IRR(h); 100 nM) of 5%. The inhibition at 1 µM (IRR(h); 1000 nM) was 1%, the inhibition at 0.01 µM (JNK3(h); 10 nM) was -17% and the inhibition at 0.1 µM (JNK3(h); 100 nM) was -22%. It also gave an inhibition at 1 µM (JNK3(h); 1000 nM) of -36%, an inhibition at 0.01 µM (PAK1(h); 10 nM) of 5% and an inhibition at 0.1 µM (PAK1(h); 100 nM) of 6%. For the same molecule, the inhibition at 1 µM (PAK1(h); 1000 nM) was 2%, the inhibition at 0.01 µM (PDHK4(h); 10 nM) was -2% and the inhibition at 0.1 µM (PDHK4(h); 100 nM) was -2%. It also gave an inhibition at 1 µM (PDHK4(h); 1000 nM) of 0%, an inhibition at 0.01 µM (Pim-1(h); 10 nM) of -5% and an inhibition at 0.1 µM (Pim-1(h); 100 nM) of 13%. It also gave an inhibition at 1 µM (Pim-1(h); 1000 nM) of 9%, an inhibition at 0.01 µM (RIPK2(h); 10 nM) of 2% and an inhibition at 0.1 µM (RIPK2(h); 100 nM) of 6%. For the same molecule, the inhibition at 1 µM (RIPK2(h); 1000 nM) was 3%.
